Values of other authors in patent publication US7550449B2, “Carba cyclic phosphatidic acid derivative” (priority 2002, dated 2009).

What was measured:
[1] = system: MM1 cells, highly invasive clones of a rat ascites hepatoma cell line (AH-130); details: literature (Mukai et al. 1999)
[2] = system: human fibrosarcoma cells (HT-1080); details: cells require neither serum nor LPA for invasion; literature
MM1 cells = details: within several minutes of addition, effect not lost with LPA, literature
Rho = details: literature (Mukai et al. 2000)

CCCCCCCCCCCCCCCC(=O)OCC1COP(=O)(O)O1 (stereo not shown) [Pal-cPA]
invasion suppressing activity among cPA derivatives with different fatty acids at sn-1 [1]: strongest invasion suppressing activity | suppression of invasion of HT-1080 cells [2]: significantly suppressed | intracellular cAMP concentration (MM1 cells): elevated | LPA-mediated Rho activation (Rho): inhibited
